# Test results as given in patent publication US11801235B2, “Methods and compositions for delivery of biotin to mitochondria” (priority 2020, dated 2023).
# Square brackets hold non-standard residues; d marks the D form. Peptide text beside a SMILES is read from it. * marks the point of attachment. Biotin = O=C1N[C@H]2[C@H](CS[C@H]2CCCCC(=O)*)N1
# Key:
# mouse retina = conditions: 30 mg/kg ip
# Description: SPN15 (30 mg/kg) was administered ip to a 13-month-old male mouse (C57BL/6J strain). At 2-hours after administration, the mouse was anesthetized with an overdose of ketamine/xylazine, and the eyes enucleated. After the cornea and lens were removed, the eyecup was fixed for 1.25 hours in 4% paraformaldehyde in 0.1M Tris buffer. The eyecup was then rinsed 3 times for 10 minutes each in Tris buffer and then cryoprotected in 10%, 20%, and 30% sucrose before sectioning at 30 um with a Leica 3050 cryostat. Sections were stored at −20° C. until used.
# To label biotin on SPN15, sections were incubated with Streptavidin conjugated AlexaFluor 594 (1:500) from Jackson ImmunoResearch, West Grove, PA). ToPro 3 (nuclear stain, 1:1000, Molecular Probes) was used to stain cell nuclei. Mitochondria localization was determined using an antibody to Cox IV (cytochrome c oxidase subunit 4; PA529992, 1:300, Invitrogen) and Mitotracker Red (1:1500 in Tris, Invitrogen). All incubations were carried out in microwave (150W) except for Cox IV and Mitotracker labeling, which was done with primary antibody overnight at 4° C. followed by secondary antibody (AF488 conjugated donkey anti-rabbit, Jackson Immunoresearch). Sections were imaged using the Olympus Fluoview 300 with helium, argon and neon lasers using 40× oil immersion lens at a resolution of 1024×1024.
# [1] = test system: ARPE-19 human retinal pigment epithelial cells; test: Mitochondrial localization: co-localization with cytochrome c oxidase subunit 4 (COX4); format: cell-based; conditions: ARPE-19 cells, 1 uM, 2 hours, serum-free DMEM/F12
# Description: Cells were fixed with 4% PFA at RT for 10 min and then permeabilized with 0.1% Triton X-100 at RT for 10 min. Cells were blocked with 2% BSA (bovine serum albumin) at RT for 30 min, and then incubated with primary antibody for cytochrome c oxidase subunit 4 (COX4), a major protein complex expressed on the inner mitochondrial membrane. The rabbit polyclonal COX4 antibody (Invitrogen PAS-29992, Waltham, MA) was used at 1:500 dilution in 2% BSA at 4° C. overnight.
# [2] = test system: ARPE-19 human retinal pigment epithelial cells; test: Biotin uptake by streptavidin-Alexa Fluor 594 fluorescence in ARPE-19 cells; conditions: 1 uM, 1-hour incubation, serum-free
# Description: Cellular uptake and localization of peptide-conjugated biotin molecules were determined in HK-2 human renal epithelial cells and ARPE-19 human retinal pigment epithelial cells (ATCC, Manassas, VA). HK-2 cells were cultured in Dulbecco's Modified Eagle's Medium (DMEM) containing 1 g/L glucose and 10% fetal bovine serum (FBS), 100 units/ml penicillin and 100 ug/ml streptomycin. ARPE-19 cells were cultured in DMEM/F12 medium containing 1 g/L glucose and 10% fetal bovine serum (FBS), 100 units/ml penicillin and 100 ug/ml streptomycin. Cells were incubated in humidified incubator with 5% CO2 at 37° C. HK-2 cells and ARPE-19 cells were seeded in 35 mm dish at an initial density of 5×10^4 cells. FBS was removed from the culture medium for 3 days to deplete endogenous biotin in the cells. […]
# Biotin uptake was determined using Streptavidin binding. […] By using Alexa Fluor 594-conjugated streptavidin, it is possible to visualize biotin uptake using fluorescence microscopy. […] Live cell image buffer was added and Alexa-594 fluorescence (Ex/Em=591/614 nm) and Hoechst fluorescence ([…]) was observed using the Nikon Eclipse Ti2 fluorescence microscope (100×oil objective). Ten random fields from each sample were quantified by NIS-Elements Imaging Software (Nikon) for streptavidin fluorescence and normalized to Hoechst fluorescence to account for number of cells per field.
# [3] = test system: Human retinal pigment epithelial cells (ARPE-19); test: Mitochondrial potential (TMRM/MitoView Green) after serum starvation; format: cell-based; conditions: ARPE-19 cells, 3 days of serum starvation, then 1 uM for 2 hours
# Description: ARPE-19 cells were seeded in 35 mm glass plates at an initial density of 5×10^4 cells. […] Cells were then incubated in serum-free DMEM/F12 alone (control group) or DMEM/F12 containing 1 uM of SPN12 or SPN15 for 2 hours.
# To determine mitochondrial potential, live cells were incubated with 5 nM tetramethylrhodamine methyl ester (TMRM, #70017, Biotium, Fremont, CA) in DMEM without phenol red. TMRM is a potential-dependent fluorescent dye (Ex/Em=548/573). TMRM accumulates in negatively charged polarized mitochondria and can be detected as red fluorescence. Total mitochondria were imaged with a mitochondrial potential-independent fluorescent dye (100 nM MitoView Green; Ex/Em=490/523; #70054, Biotium, Fremont CA). Hoechst 33342 (10 ug/ml, Novus Biologicals, Centennial, CO) was added to stain nuclei. Live cells were covered with phosphate buffer and imaged using the Nikon Eclipse Ti fluorescent microscopy using the 60×water objective.
# ARPE-19 cells [4] = test: In vitro scratch assay (scratch area); format: cell-based, human
# Source text: (§1) Certain exemplary peptide-conjugated biotin molecules can accelerate wound healing in cell cultures. The in vitro scratch assay is an easy and well-developed method to measure cell proliferation and migration over a “wound area” in vitro. This assay involves creating a “scratch” in a cell monolayer with a pipette tip and then examining the rate at which cells proliferate and migrate to close the scratch.
# (§2) The scratch area was examined immediately (day 0) using a Nikon Eclipse Ti2 fluorescence microscope. Six different field were captured for each sample using 4×objective. The scratch area (cell-free zone) was calculated using ImageJ software, an open-source Java image processing program inspired by NIH Image (National Institute of Health). The scratch area was re-examined after 24 hours (day 1), and the area was normalized to the area determined on day 0 for the same sample. All results were calculated as change from no-treatment control and averaged for the six fields.
# ARPE-19 cells [5] = test: Cell number and viability after 30 days of serum deprivation; format: cell-based, human; conditions: 10 nM
# Description: Cell viability was measured using the Alamar Blue Cell Proliferation Assay (Bio-Rad), according to manufacturer's protocol. Alamar Blue uses resazurin to measure reducing power of living cells. The weakly fluorescent resazurin is reduced to the highly fluorescent resorufin when reduced by cellular metabolism. Briefly, alamar blue reagent (10 ul) was added to the culture medium and incubated for 1 h at 37° C. Fluorescence from resorufin (Ex/Em 530/590 nm) was detected using a microplate reader (SpectraMax iD3, Molecular Devices).
# In the second model, ARPE-19 cells were grown in serum-free DMEM in the absence or presence of peptide-conjugated biotin molecules for 30 days. Serum-free media was supplemented with 10 nM of SPN12, SPN15 or SPN16 compounds (all at 10 nM) was replaced every 3 days. Culture medium was replaced every 3 days.
# HK-2 cells = test: In vitro scratch assay (scratch area); format: cell-based, human; conditions: 10 nM, serum-free, 24 hours
# Description: as §1
# 3×10^5 cells were plated per well in 6-well plates in DMEM at 37° C. in a humidified incubator with 5% CO2 for one day prior to the experiment. To mimic the microenvironment of wounds in vitro, serum-free medium was used in the scratch assay. On the day of the scratch assay, the medium was replaced with serum-free DMEM, and a line scraped across the cell monolayer using a p1000 pipette tip. Cells were washed to remove cell debris and replaced with DMEM alone (control), or DMEM containing 10 nM biotin or peptide-conjugated biotin molecules.
# as §2
# [6] = mouse, 2 hours after administration
compound,measurement,setting,value
"N=C(N)NCCC[C@@H](N)C(=O)N[C@@H](Cc1ccc(O)cc1)C(=O)N[C@H](CCCNC(=N)N)C(=O)N[C@@H](Cc1ccccc1)C(=O)N[C@@H](CCCCNC(=O)CCCC[C@@H]1SC[C@@H]2NC(=O)N[C@@H]21)C(N)=O [SPN15, D-Arg-L-Tyr-D-Arg-L-Phe-L-Lys(biotinyl)-NH2] (H-[dR]Y[dR]FK(Biotin)-NH2; N-terminus assumed)",absorption after ip administration,"mouse retina; living mouse, 2 hours",rapidly absorbed
same,"co-localization of streptavidin staining with COX4 staining in retina, FIG. 26",mouse retina; [6],"co-localizes with COX4 staining in the RGC, IPL, INL, and the photoreceptor IS"
same,"distribution of staining within retinal layers, FIG. 26",mouse retina; [6],concentrated in the inner and outer plexiform layers (IPL and OPL)
same,"staining in retinal pigment epithelium (RPE) cells, FIG. 27",mouse retina; [6],can clearly be seen in the RPE cells
same,"uptake into retina (Streptavidin Alexa Fluor 594 staining), FIG. 26",mouse retina; [6],clearly taken up in the different layers of the retina
same,"co-localization of biotin staining with COX4 staining (inner mitochondrial membrane), FIG. 6",[1],co-localization
same,"intracellular streptavidin staining (cellular uptake of biotin), microscopic images FIG. 4",[2],intense red staining with a perinuclear distribution
same,"mitochondrial potential (TMRM) and filamentous mitochondrial network, FIG. 14",[3],restore mitochondrial potential in all cells
same,"wound healing (scratch closure), FIG. 18",ARPE-19 cells [4],accelerated wound healing
same,"cell viability after serum deprivation compared to control, FIG. 9",ARPE-19 cells [5]; 30 days of serum deprivation,doubled
same,"cell number after prolonged serum deprivation, microscopic images FIG. 8",ARPE-19 cells [5]; 30 days serum-free,increased cell number
same,"closure of the scratch area compared to control, FIG. 16 and FIG. 17",HK-2 cells,significantly accelerated the closure of the scratch area
same,"effectiveness in reducing scratch area compared to free biotin, FIG. 16 and FIG. 17",HK-2 cells,three times more effective
